Measured values taken from patent publication US6429204B1, “Method of inhibiting cancer growth” (University of Miami, priority 1997, dated 2002).

Legend:
[1] = system: activation of MMPs by p-aminophenyl mercuric acetate; test: Inhibition of APMA activation of MMPs in processed conditioned medium; type: biochemical
Method: In addition, the ability of doxycycline or CMT-3 to inhibit APMA activation of MMPs was tested. Processed culture-conditioned medium was incubated with the drugs for 1 hr before adding 1 mM APMA, and the incubation was continued thereafter for 2 hr. ^3H-gelatin was then added and the assy was continued for 4 hr. All assays were performed in duplicate tubes, and repeated at least twice.
MMP activity in the culture media was examined at 1 mM and 10 mM CaCl2, with no change in [Zn^2+] in the assay buffer. We employed 1 mM CaCl2, as this concentration is closer to physiological concentration, and 10 mM CaCl2, as it is reported to be the optimum concentration in in vitro assays (Woessner 1991). As is shown in Table 2, both CMT-3 and doxycycline inhibited in vitro activated gelatinases.

Gelatinase A = target: T1, Gelatinase A (Homo sapiens, UniProt P08253); test: Zymography with densitometry of C8161 conditioned medium, gelatinase A; type: cell-based; details: 50 μg/mL, 24 hr
T1 construct: endogenous in cells; host or cells: C8161
T1 sequence (P08253 110-660): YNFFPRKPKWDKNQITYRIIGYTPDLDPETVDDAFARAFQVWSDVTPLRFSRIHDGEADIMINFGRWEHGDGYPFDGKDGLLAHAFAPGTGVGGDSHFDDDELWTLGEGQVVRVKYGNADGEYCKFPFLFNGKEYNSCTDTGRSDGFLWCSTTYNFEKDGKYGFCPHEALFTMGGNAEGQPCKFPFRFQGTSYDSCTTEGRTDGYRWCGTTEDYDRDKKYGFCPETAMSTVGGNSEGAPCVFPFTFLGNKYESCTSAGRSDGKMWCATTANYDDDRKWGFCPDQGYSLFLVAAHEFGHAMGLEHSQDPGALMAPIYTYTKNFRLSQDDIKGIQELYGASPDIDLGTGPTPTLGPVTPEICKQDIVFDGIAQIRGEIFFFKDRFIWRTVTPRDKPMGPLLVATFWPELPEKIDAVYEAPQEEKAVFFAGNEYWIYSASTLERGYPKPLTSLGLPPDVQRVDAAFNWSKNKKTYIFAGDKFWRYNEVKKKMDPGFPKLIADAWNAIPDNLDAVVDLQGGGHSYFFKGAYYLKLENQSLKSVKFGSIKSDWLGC
Method: Six hundred thousand (6×10^5) C8161 cells were seeded per well in a 12-well dish coated with a laminin/collagen IV/gelatin matrix in DMEM plus Mito+ and 0.1% gentamicin sulfate. After approximately 1 hr incubation to allow the cells to attach, 50 μg/mL of either doxycycline or one of the other CMTs was added per well and the dish then placed in a 37° C. humidified 5% CO2 incubator. After 24 hr, the supernatants were removed and centrifuged to remove any cells or debris. One volume of Laemmli sample buffer minus reductant was added to two volumes of the medium, and this sample electrophoresed without prior heating or boiling on a 10% SDS-PAGE containing 0.1% gelatin (samples normalized based on the same number of cells per volume of medium per time of incubation). After electrophoresis, the gels were washed with gentle shaking at room temperature for 30 min in 50 mM Tris-HCl (pH 7.5) plus 2.5% TRITON® X100 plus 50 μg/mL of the corresponding CMT used in the original treatment. The gel was then placed in incubation buffer (50 mM Tris-Cl/10 mM CaCl2/150 mM NaCl/0.05% NaN3) also containing 50 μg/mL of the corresponding CMT, and incubated at 37° C. for 20-24 hr. The gels were stained with Coomassie BBR-250, then destained with 10% methanol/10% acetic acid in water until the wash remained clear. A photographic negative of the gel was digitized using a video camera and Snappy Video Snapshot system (Play Inc., Rancho Cordova, Calif.). An integrated density was determined for each of the cleared zones of proteolysis using the software ImagePC8α (freely available from the National Institutes of Health), and the corresponding changes in gelatinolytic activities reported compared to the control samples normalized to a value of 1.0.

PC-3 tumor cells = test: Alamar Blue viability assay, PC-3; type: cell-based, human
Excerpt: (§1) Several cancer cell lines and normal cells were examined in vitro to determine whether tetracycline compounds produce cytotoxic (cell killing) effects. A conventional assay for viability of cultured cells based on redox activity in the cells was employed (Pagé et al. 1993). The assay uses a redox dye Alamar Blue, which is a fluorogenic indicator dye that is converted to a fluorescent red product only when cells are carrying out electron transport activity, a widely accepted criterion of viability.
(§2) Cultured cells from three prostate tumor cell lines, LNCAP, DU-145, and PC-3, and normal prostate stromal cells obtained by biopsy of a normal person, were allowed to grow to confluence in multiwell microplates to minimize differences in proliferative activity among the cell types at the time of exposure to the test compound. CMT-3 was added to the wells at concentrations of 10 μM and 20 μM (50 μM also in the case of DU-145). At the start of the experiment, and again at 1, 2, and 3 days, selected wells were incubated with the indicator dye for 3 hr, and the fluorescence was measured on a Cytofluor 2300 fluorescent microplate reader.

DU-145 tumor cells = test: Alamar Blue viability assay, DU-145; type: cell-based, human
Excerpt: as §1, §2

MAT LyLu cells = test: Soluble nucleosome ELISA (programmed cell death), MAT LyLu; type: cell-based, rat
Method: An investigation of the cytotoxicity of chemically modified tetracycline compounds for cancer cells was undertaken to determine involvement of programmed cell death (apoptosis) (see Duke et al. 1986). MAT LyLu cells were incubated with various concentration of CMT-3 and doxycycline. Conditioned media were assayed for soluble nucleosomes, resulting from internucleosomal DNA strand breaks, using the Cell Death Detection ELISA Plus kit from Boehringer Mannheim GmbH (Catalog No. 1774425) according to the manufacturer's instructions. In the dosage-dependence trials, cells were incubated with the tetracycline compounds for 48 hr, and then media were collected. In the time trials, the cells were exposed to the tetracycline compounds for specific periods of time from 0 to 48 hr, and if appropriate were maintained in fresh media until 48 hr from the start of the experiment at which time media were collected.

COLO 205 Cells = test: MTS cytotoxicity assay, COLO 205; details: two days

With `NC(=O)C1=C(O)CC2CC3Cc4cccc(O)c4C(=O)C3=C(O)C2(O)C1=O` (stereo not drawn) [CMT-3, 6-demethyl-6-deoxy-4-de(dimethylamino)tetracycline] the “IC50, inhibition of activation of MMPs by APMA” value ([1]; 10 mM CaCl2) was 1.0 µg/mL, the IC50 ([1]; 10 mM CaCl2, value in brackets) was 2200 nM and the “Gelatinase A, integrated density normalized to control 1.00” value (Gelatinase A) was 0.22. For the same compound, the cytotoxicity (PC-3 tumor cells; 24 hr) was “about 25%”, the cytotoxicity (PC-3 tumor cells; 48 hr) was roughly 50% and the cytotoxicity (PC-3 tumor cells; 72 hr) was roughly 75%. For the same compound, the cytotoxicity (DU-145 tumor cells; 20 μM) was “some cytotoxicity appearing after 72 hr”, the cytotoxicity (DU-145 tumor cells; 50 μM, over 72 hr) was “significant cytoxicity” and the “programmed cell death response after brief exposure” value (MAT LyLu cells; 4 hr at 5 μg/mL or 10 μg/mL) was “sufficient to elicit a putative programmed cell death response”. The “soluble nucleosomes / programmed cell death induction” value (MAT LyLu cells; dosage-dependence, 48 hr) was “dose-dependent increase in soluble nucleosomes”, the percent cytotoxicity (COLO 205 Cells; 5 μM) was 25.9% and the percent cytotoxicity (COLO 205 Cells; 10 μM) was 38.9%. It also gave a percent cytotoxicity (COLO 205 Cells; 20 μM) of 37%, a percent cytotoxicity (COLO 205 Cells; 50 μM) of 86.7% and a percent cytotoxicity (COLO 205 Cells; 100 μM) of 86.7%.
